Laboratory results: patent publication US20160311812A1, “ADENOSINE A1 AGONISTS AS MEDICAMENTS FOR KIDNEY DISORDERS” (BAYER PHARMA AKTIENGESELLSCHAFT, priority 2013, published 2016)

Legend:
[1] = test system: unilaterally nephrectomized SHR; test: Functional and structural myocardial dysfunction in unilaterally nephrectomized spontaneously hypertensive rats; format: in vivo, rat; conditions: Group 5: SNX + 3.0 mg/kg body weight/day p.o., 4 weeks
Description: (§1) B-4. Effects of Partial A1 Agonists on Renal and Cardiac Function in Unilaterally Nephrectomized and Spontaneously Hypertensive Rats (Example 2 for Chronic Kidney Disorders)
(§2) Unilaterally nephrectomized, spontaneously hypertensive rats (SHR) are an established animal model for investigating the development and progression of hypertensive damage of the glomeruli in the remaining kidney [H. Kinuno et al., “Effects of uninephrectomy on renal structural properties in spontaneously hypertensive rats”, Clin and Exp Pharmacol and Physiol 2005, 32, 173-178]. […] Furthermore, renal excretion of substances usually eliminated in the urine, such as creatinine and urea, is reduced and the electrolyte metabolism is disturbed, the latter being associated with volume retention.
(§3) Procedure: male SHR rats (180-220 g) from Taconic had the left kidney removed in one session (=UNX). Normotensive Wistar Kyoto rats (WKY) from Taconic served as control. The following groups, each with 12 rats per group, were investigated:
(§4) Group 2 UNX+placebo (60 g glycerol+100 g water+969 g PEG-400)
(§5) Group 3 UNX+10 mg/kg body weight/day enalapril (reference therapy, in the drinking water)
(§6) Group 4 SNX+1.0 mg/kg body weight/day partial A1 EXAMPLE 1, p.o. in placebo
(§7) Group 5 SNX+3.0 mg/kg body weight/day partial A1 EXAMPLE 4, p.o. in placebo
(§8) Three weeks after unilateral nephrectomy, the SHRs developed manifest hypertensive damage of the glomeruli in the remaining kidney, from this time point on the rats were treated for a further four weeks corresponding to the groups given above. At the end of the protocol, the following samples were obtained/measurements were carried out: eight-hour urine collection, invasive measurement of systolic and diastolic left ventricular function, and TaqMan analyses of renal injury markers in the renal cortex.

[2] = test system: unilaterally nephrectomized SHR; test: Functional and structural renal dysfunction in unilaterally nephrectomized spontaneously hypertensive rats; format: in vivo, rat; conditions: Group 5: SNX + 3.0 mg/kg body weight/day p.o., 4 weeks
Description: as §1, §2, §3, §4, §5, §6, §7, §8

[3] = test system: 5/6 nephrectomy rat model; test: Left-ventricular diastolic dysfunction under isoprenaline infusion in 5/6 nephrectomized rats; format: in vivo; conditions: 4 weeks
Description: (§9) B-3. Effects of Partial A1 Agonists on Renal and Cardiac Function in 5/6 Nephrectomized Rats (Example 1 for Chronic Kidney Disorder)
(§10) 5/6 nephrectomy in the rat, in which one kidney and the renal cortex of the second kidney are surgically removed (=5/6 of functional kidney tissue) is an established animal model for interstitial renal fibrosis and chronic renal insufficiency [C. Fleck et al., “Suitability of 5/6 nephrectomy (5/6NX) for the induction of interstitial renal fibrosis in rats Influence of sex, strain, and surgical procedure”, Exp. Tox. Pathology 2006, 57, 195-205]. The model is characterized by progressive proteinuria, disturbed tubular electrolyte transport, a reduced glomerular filtration rate, an increase in urinary output, interstitial fibrosis with reactively occurring lymphocyte infiltrates, glomerulosclerosis and tubular atrophy. The level of proteinuria is a specific index of the renal function prognosis: the higher the proteinuria, the greater is the functional and structural kidney injury and therefore progression of chronic to terminal renal insufficiency (uraemia). During monitoring of therapy, e.g. with the ACE inhibitor enalapril, the course of proteinuria provides information on the functional and structural response to the therapy and thus on the renal function prognosis. As a result of the renal insufficiency and accumulation of umemic toxins, in the animals there is secondary development of a umemic cardiomyopathy, depending on the severity associated with hypertension, increased heart rate, reduced parasympathetic tone, myocardial, left-ventricular hypertrophy and fibrosis, diastolic dysfunction and an increased prevalence of arrhythmias [Svilerova et al. 2010 Physiol Res 59: S81-S88).
(§11) Procedure: male Wistar:WU rats (210-250 g) from Charles River had the left kidney and the renal cortex of the right kidney removed (=SNX) in one session; sham-operated rats served as control group (=SOP). The following groups, each with 12 rats per group, were investigated:
(§12) Group 2 SNX+placebo (60 g glycerol+100 g water+969 g PEG-400)
(§13) Group 3 SNX+10 mg/kg body weight/day enalapril (reference therapy, in the drinking water)
(§14) Group 4 SNX+0.1 mg/kg body weight/day partial A1 agonist EXAMPLE 1, p.o. in placebo
(§15) Group 5 SNX+1.0 mg/kg body weight/day partial A1 agonist EXAMPLE 1, p.o. in placebo
(§16) Group 6 SNX+0.3 mg/kg body weight/day partial A1 agonist EXAMPLE 4, p.o. in placebo
(§17) Group 7 SNX+3.0 mg/kg body weight/day partial A1 agonist EXAMPLE 4, p.o. in placebo
(§18) Three weeks after 5/6 nephrectomy, the rats developed manifest proteinuria, from this time point the rats were treated for a further four weeks corresponding to the groups stated above. At the end of the protocol, the following samples were obtained/measurements were carried out: eight-hour urine collection with determination of the concentration of hFABP in the urine by ELISA (Rat/Mouse h-FABP ELISA, Hycultbiotech), as marker for end organ damage, invasive measurement of the isoprenaline-induced increase (cumulatively 12.5 ng-250 ng/kg isoprenaline, i.v.) in systolic and diastolic left ventricular function, and TaqMan analyses of renal injury markers in the renal cortex.

[4] = test system: 5/6 nephrectomy rat model; test: Functional and structural renal dysfunction in 5/6 nephrectomized rats; format: in vivo; conditions: 4 weeks; for End organ injury marker concentration in the urine: hFABP / End organ injury marker concentration in the urine: hFABP per creatinine: ELISA; for Kidney injury marker-1 [gene expression] / Lipocalin-2 [gene expression] / Osteopontin [gene expression]: renal cortex
Description: as §9, §10, §11, §12, §13, §14, §15, §16, §17, §18

[5] = Group 6: SNX + 0.3 mg/kg body weight/day p.o.
[6] = Group 7: SNX + 3.0 mg/kg body weight/day p.o.

SMILES: N#Cc1c(SCc2csc(-c3ccc(Cl)cc3)n2)nc(N2CCCC2)c(C#N)c1-c1ccc(OCCO)cc1 [EXAMPLE 4, 2-({[2-(4-Chlorophenyl)-1,3-thiazol-4-yl]methyl}sulphanyl)-4-[4-(2-hydroxyethoxy)phenyl]-6-(pyrrolidin-1-yl)pyridine-3,5-dicarbonitrile]
- Diastolic blood pressure [1]: 144 ± 6 mmHg
- Heart rate [1]: 326 ± 9 beats/min
- Left ventricular hypertrophy (LVS/RV ratio, mg/mg) [1]: 4.5 ± 0.2 mg/mg
- Left-ventricular end-diastolic pressure [1]: 10.22 ± 1.6 mmHg
- Left-ventricular pressure [1]: 196 ± 5 mmHg
- Pressure decrease over time [1]: −10680 ± 524 mmHg/s
- Pressure increase over time [1]: 9419 ± 383 mmHg/s
- Systolic blood pressure [1]: 205 ± 5 mmHg
- P-creatinine [2]: 58 ± 0.6 µmol/L
- P-urea [2]: 8.7 ± 0.2 mmol/L
- U-creatinine [2]: 3.4 ± 0.9 μmol/ml urine/kg BW/h
- U-protein [2]: 0.96 ± 0.26 μmol/ml urine/kg BW/h
- U-sodium [2]: 46 ± 11 μmol/ml urine/kg BW/h
- U-urea [2]: 337 ± 89 μmol/ml urine/kg BW/h
- Urine volume [2]: 1.8 ± 0.2 ml/kg BW/h
- CYR61 [gene expression] ([2]; renal cortex): 274 ± 21 rel. expression
- Lipocalin-2 [gene expression] ([2]; renal cortex): 119 ± 9 rel. expression
- left-ventricular pressure decrease as a function of time ([3]; isoprenaline 0 ng/kg body weight, Group 6: SNX + 0.3 mg/kg body weight/day p.o.): 6518 ± 221 mmHg/s
- left-ventricular pressure decrease as a function of time ([3]; isoprenaline 0 ng/kg body weight, Group 7: SNX + 3.0 mg/kg body weight/day p.o.): 6884 ± 383 mmHg/s
- left-ventricular pressure decrease as a function of time ([3]; isoprenaline 12.5 ng/kg body weight, Group 6: SNX + 0.3 mg/kg body weight/day p.o.): 7733 ± 233 mmHg/s
- left-ventricular pressure decrease as a function of time ([3]; isoprenaline 12.5 ng/kg body weight, Group 7: SNX + 3.0 mg/kg body weight/day p.o.): 8369 ± 395 mmHg/s
- left-ventricular pressure decrease as a function of time ([3]; isoprenaline 25 ng/kg body weight, Group 6: SNX + 0.3 mg/kg body weight/day p.o.): 8001 ± 224 mmHg/s
- left-ventricular pressure decrease as a function of time ([3]; isoprenaline 25 ng/kg body weight, Group 7: SNX + 3.0 mg/kg body weight/day p.o.): 8557 ± 396 mmHg/s
- left-ventricular pressure decrease as a function of time ([3]; isoprenaline 50 ng/kg body weight, Group 6: SNX + 0.3 mg/kg body weight/day p.o.): 8763 ± 195 mmHg/s
- left-ventricular pressure decrease as a function of time ([3]; isoprenaline 50 ng/kg body weight, Group 7: SNX + 3.0 mg/kg body weight/day p.o.): 9100 ± 341 mmHg/s
- left-ventricular pressure decrease as a function of time ([3]; isoprenaline 100 ng/kg body weight, Group 6: SNX + 0.3 mg/kg body weight/day p.o.): 9621 ± 212 mmHg/s
- left-ventricular pressure decrease as a function of time ([3]; isoprenaline 100 ng/kg body weight, Group 7: SNX + 3.0 mg/kg body weight/day p.o.): 10263 ± 294 mmHg/s
- left-ventricular pressure decrease as a function of time ([3]; isoprenaline 250 ng/kg body weight, Group 6: SNX + 0.3 mg/kg body weight/day p.o.): 9968 ± 162 mmHg/s
- left-ventricular pressure decrease as a function of time ([3]; isoprenaline 250 ng/kg body weight, Group 7: SNX + 3.0 mg/kg body weight/day p.o.): 10385 ± 352 mmHg/s
- P-creatinine [4, 5]: 64 ± 1 µmol/L
- P-urea [4, 5]: 11 ± 0.3 mmol/L
- U-creatinine [4, 5]: 3.1 ± 0.2 μmol/ml urine/kg BW/h
- U-protein [4, 5]: 1.70 ± 0.29 μmol/ml urine/kg BW/h
- U-sodium [4, 5]: 19 ± 3 μmol/ml urine/kg BW/h
- U-urea [4, 5]: 330 ± 25 μmol/ml urine/kg BW/h
- Urine volume [4, 5]: 1.8 ± 0.1 ml/kg BW/h
- End organ injury marker concentration in the urine: hFABP [4, 5]: 3125 ± 497 pg hFABP/ml urine/h
- End organ injury marker concentration in the urine: hFABP per creatinine [4, 5]: 386 ± 57 pg hFABP/μmol creatinine
- Kidney injury marker-1 [gene expression] [4, 5]: 68 ± 14 rel. expression
- Lipocalin-2 [gene expression] [4, 5]: 340 ± 49 rel. expression
- Osteopontin [gene expression] [4, 5]: 6882 ± 1240 rel. expression
- P-creatinine [4, 6]: 63 ± 1 µmol/L
- P-urea [4, 6]: 11 ± 0.3 mmol/L
- U-creatinine [4, 6]: 2.7 ± 0.3 μmol/ml urine/kg BW/h
- U-protein [4, 6]: 0.97 ± 0.12 μmol/ml urine/kg BW/h
- U-sodium [4, 6]: 43 ± 5 μmol/ml urine/kg BW/h
- U-urea [4, 6]: 281 ± 30 μmol/ml urine/kg BW/h
- Urine volume [4, 6]: 1.8 ± 0.2 ml/kg BW/h
- End organ injury marker concentration in the urine: hFABP [4, 6]: 1706 ± 249 pg hFABP/ml urine/h
- End organ injury marker concentration in the urine: hFABP per creatinine [4, 6]: 218 ± 39 pg hFABP/μmol creatinine
- Kidney injury marker-1 [gene expression] [4, 6]: 56 ± 18 rel. expression
- Lipocalin-2 [gene expression] [4, 6]: 283 ± 45 rel. expression
- Osteopontin [gene expression] [4, 6]: 6340 ± 1656 rel. expression
